Results as given in patent US10308595B2, “Albicidin derivatives, their use and synthesis” (priority 2013, dated 2019).
Like-named read-outs stand apart in the source and are kept apart here.

How the values were obtained:
Type in all cases: cell-based
[1] = system: Pseudomonas aeruginosa DSM1117; test: Test agar plates (disc diffusion), diameter of inhibition area; details: DSM1117, 18 h, read-out: diameter of inhibition, Pseudomonas aeruginosa DSM1117
Procedure: (§1) The dry compounds were dissolved in DMSO (1 mg/ml) and the so obtained stock solution was diluted with sterilized Millipore water 1:10 and 1:100
(§2) 20 μl of cryo stock of each strain were inoculated to 20 ml of Mueller-Hinton medium and grown overnight at 30° C. or 37° C. on a vertical shaker with 160 rpm. The inoculum for the test was adjusted by the 0.5 McFarland Standard (OD625 from 0.08 to 0.1)
Pseudomonas aeruginosa DSM1117 [gram. Neg.] Medium: MHB/37° C.
(§3) Every plate is prepared by pouring 10 ml Mueller-Hinton agar into standard petri dishes (diam 94 mm). The so obtained Mueller-Hinton plates are overlayed with 4 ml Mueller-Hinton soft agar containing 100 μl suspension of the test strain.
(§4) After the soft agar turned solid, sterile susceptibility test discs were circular placed on the agar and on every test disc 10 μl compound was added. Each concentration is tested in triplicate. The agar dishes were incubated for 18 hours at a temperature of 30° C. or 37° C. Results are obtained by measuring the diameter of inhibition area around each test disc.

Escherichia coli DH5α = test: as above; details: 18 h, read-out: diameter of inhibition, Escherichia coli DH5α
Procedure: as §1, §2
Escherichia coli DH5α [gram. Neg.] Medium: MHB/37° C.
as §3, §4

[2] = system: Staphylococcus aureus DSM 2569; test: as above; details: DSM2569, 18 h, test agar plates, active substance 1 mg/ml, "more than 1 cm and more than 2 cm" [sic], read-out: diameter of inhibition, Staphylococcus aureus DSM 2569
Procedure: as §1, §2
Staphylococcus aureus DSM 2569 [gram. Pos.] Medium: MHB/37° C.
as §3, §4

[3] = system: Micrococcus luteus DSM1790; test: as above; details: Micrococcus luteus, DSM1790, 18 h, read-out: diameter of inhibition, Micrococcus luteus DSM1790
Procedure: as §1, §2
Micrococcus luteus DSM1790 [gram. Pos.] Medium: MHB/37° C.
as §3, §4

[4] = system: Escherichia coli albi-res (Montpellier); test: as above; details: 18 h, read-out: diameter of inhibition, Escherichia coli albi-res (Montpellier)
Procedure: as §1, §2
Escherichia coli albi-res (Montpellier) [gram. Neg.] Medium: MHB/37° C.
as §3, §4

Bacillus subtilis DSM10 = test: as above; details: Bacillus subtilis, DSM10, 18 h, read-out: diameter of inhibition, Bacillus subtilis DSM10
Procedure: as §1, §2
Bacillus subtilis DSM10 [gram. Pos.] Medium: MHB/30° C.
as §3, §4

[5] = system: Escherichia coli (ATCC 25922, 100-2-49 and 100-2-56); test: EN-ISO standard test (ISO 20776-1), MIC
Procedure: (§5) Furthermore, compounds were tested against the following bacteria
(§6) according to EN-ISO standard (ISO 20776-1: 2006. Clinical laboratory testing and in vitro diagnostic test systems—Susceptibility testing of infectious agents and evaluation of performance of antimicrobial susceptibility test devices—Part 1:Reference method for testing the in vitro activity of antimicrobial agents against rapidly growing aerobic bacteria involved in infectious diseases; German version EN ISO 20776-1:2006. Beuth-Verlag, Berlin).

[6] = system: Salmonella enteritidis (PEG-10-3-58); test: EN-ISO standard test (ISO 20776-1), MIC
Procedure: as §5
Salmonella enteritidis (PEG-10-3-58),
as §6

[7] = test agar plates, active substance 1 mg/ml, more than 1 cm or more than 2 cm
[8] = test agar plates, active substance 1 mg/ml, "more than 1 cm and more than 2 cm" [sic]
[9] = test agar plates, active substance 1 mg/ml, more than 1 cm or more than 3.9 cm [sic]

Compound | zone of inhibition at 1000 µg/mL [1, 7] [mm] | zone of inhibition at 1000 µg/mL (Escherichia coli DH5α; [7]) [mm] | zone of inhibition at 1000 µg/mL [2] [mm] | zone of inhibition at 1000 µg/mL [3, 8] [mm] | zone of inhibition at 1000 µg/mL [4, 7] [mm] | zone of inhibition at 1000 µg/mL (Bacillus subtilis DSM10; [9]) [mm] | zone of inhibition at 1000 µg/mL [4] [mm] | other results
COc1c(NC(=O)c2ccc(NC(=O)c3ccc(NC(=O)C(CC#N)NC(=O)c4ccc(NC(=O)/C(C)=C/c5ccc(C(F)(F)F)cc5)cc4)cc3)c(OC)c2O)ccc(C(=O)O)c1O (centres unmarked) [Compound 4] | > 10 | > 10 | > 10 | > 10 | > 10 | > 10 | – | –
CCCCCC(=O)Nc1ccc(C(=O)NC(CC#N)C(=O)Nc2ccc(C(=O)Nc3ccc(C(=O)Nc4ccc(C(=O)O)c(O)c4OC)c(O)c3OC)cc2)cc1 (centres unmarked) [Compound 34] | > 10 | > 10 | > 10 | – | – | > 10 | > 10 | –
COc1ccc(C(=O)Nc2ccc(C(=O)NC(CC#N)C(=O)Nc3ccc(C(=O)Nc4ccc(C(=O)Nc5ccc(C(=O)O)c(O)c5OC)c(O)c4OC)cc3)cc2)cc1 (centres unmarked) [Compound 10] | > 10 | > 10 | > 10 | > 10 | > 10 | > 10 | – | –
COc1c(NC(=O)c2ccc(NC(=O)c3ccc(NC(=O)C(CC#N)NC(=O)c4ccc(NC(=O)C5CC5)cc4)cc3)c(OC)c2O)ccc(C(=O)O)c1O (centres unmarked) [Compound 38] | – | – | – | – | > 10 | > 10 | – | –
COc1c(NC(=O)c2ccc(NC(=O)c3ccc(NC(=O)C(CC#N)NC(=O)c4ccc(NC(=O)c5ccc(C#N)cc5)cc4)cc3)c(OC)c2O)ccc(C(=O)O)c1O (centres unmarked) [Compound 11] | > 10 | > 10 | > 10 | > 10 | > 10 | > 10 | – | –
COc1c(NC(=O)c2ccc(NC(=O)c3ccc(NC(=O)C(CC#N)NC(=O)c4ccc(NC(=O)Cc5ccc(Cl)cc5)cc4)cc3)c(OC)c2O)ccc(C(=O)O)c1O (centres unmarked) [Compound 26] | > 10 | – | – | – | – | > 10 | > 10 | –
COc1c(NC(=O)c2ccc(NC(=O)c3ccc(NC(=O)C(CC#N)NC(=O)c4ccc(NC(=O)c5ccc[nH]5)cc4)cc3)c(OC)c2O)ccc(C(=O)O)c1O (centres unmarked) [Compound 14] | – | – | – | – | > 10 | > 10 | – | –
COc1c(NC(=O)c2ccc(NC(=O)c3ccc(NC(=O)C(CC#N)NC(=O)c4ccc(NC(=O)Nc5ccccc5)cc4)cc3)c(OC)c2O)ccc(C(=O)O)c1O (centres unmarked) [Compound 43] | > 10 | – | – | – | – | > 10 | > 10 | MIC values (minimal inhibitory concentration), in words [5]: good to very good; MIC values, in words [6]: good to very good
COc1c(NC(=O)c2ccc(NC(=O)c3ccc(NC(=O)C(CC#N)NC(=O)c4ccc(NC(=O)c5ccc(N6CCOCC6)cc5)cc4)cc3)c(OC)c2O)ccc(C(=O)O)c1O (centres unmarked) [Compound 8] | – | > 10 | > 10 | – | > 10 | > 10 | – | –
COc1c(NC(=O)c2ccc(NC(=O)c3ccc(NC(=O)C(CC#N)NC(=O)c4ccc(NC(=O)c5cccc(C(F)(F)F)c5)cc4)cc3)c(OC)c2O)ccc(C(=O)O)c1O (centres unmarked) [Compound 12] | > 10 | > 10 | > 10 | > 10 | > 10 | > 10 | – | –
COc1c(NC(=O)c2ccc(NC(=O)c3ccc(NC(=O)C(CC#N)NC(=O)c4ccc(NCc5ccc(-c6ccccc6)cc5)cc4)cc3)c(OC)c2O)ccc(C(=O)O)c1O (centres unmarked) [Compound 44] | – | – | – | – | – | – | > 10 | zone of inhibition at 1000 µg/mL [1]: > 10 mm; zone of inhibition at 1000 µg/mL (Escherichia coli DH5α): > 10 mm; zone of inhibition at 1000 µg/mL [3]: > 10 mm; zone of inhibition at 1000 µg/mL (Bacillus subtilis DSM10): > 10 mm
